The values that follow are results of earlier work, collected in patent US7514484B2, “Aqueous dispersion of polytetrafluoroethylene and process for its production” (Asahi Glass Company, Limited, priority 2005, dated 2009).

[1] abbreviates: additives of Table 3, value of the corresponding acid.
Setting [2] is: carboxylic acid corresponding to the salt of formula (4).

Read-outs that look alike come from different tables or passages of the source.

For the compound `CCCCCCCCCCCC(=O)O.N` [(d), ammonium laurate], the pKa under setting [1] is 4.6.

`O=C(O)C(F)c1ccccc1` (stereo not shown) [fluorophenyl acetic acid]: under setting [2], the pKa is given as 4.3.

In the case of `CCCCCCCCCCCC(=O)O` [lauric acid], the pKa under setting [2] is listed as 4.6.

As to ammonium fluorophenyl acetate [(f)], the pKa under setting [1] is 4.3.

Usually pKa stands for the pH at which an ionisable group is half protonated.
